What all share (format): cell-based
Test [1] concerns the target T1, Ba/F3 KIF5B-RET^G810R cells (Homo sapiens, UniProt P07949, G810R, cells depend on it).
T1 construct: Ba/F3 KIF5B-RET^G810R IC50 (nM); other: CellTiter-Glo, 72 hrs; fused on or other part: P33176 (Kinesin-1 heavy chain)
As to the kind of experiment: Cytotoxicity assay (CellTiter-Glo), Ba/F3 KIF5B-RET G810R. The following applies: CellTiter-Glo, 72 hrs; read-out: Ba/F3 KIF5B-RET^G810R IC50. On the procedure: (§1) Inhibitory effects of example compounds on the activity of Ba/F3 parental generation, Ba/F3 KIF5B-RET, Ba/F3 KIF5B-RET^V804M, Ba/F3 KIF5B-RET^V804L, Ba/F3 KIF5B-RET^G810R, Ba/F3 FLT3-ITD, Ba/F3 FLT3-ITD^D835Y, Ba/F3 FLT3-ITD^F691L cells were determined.
(§2) Materials and reagents: fetal bovine serum FBS (GIBCO, Cat #10099141), CellTiter-Glo® Luminescent Cell Viability Assay kit (Promega, Cat #G7572), 96-well black-wall clear flat-bottom plate (Corning®, Cat #3603).
(§3) 1. Cells in the logarithmic growth phase were harvested and counted with a […]. Cell viability was detected by a trypan blue exclusion method, ensuring that cell viability was 90% or more; 2. Cell concentration was adjusted to about 3000 cells/well; 90 μl of cell suspension was added to each well of the 96-well plate; 3. The cells in the 96-well plate were incubated overnight under the condition of 37° C., 5% CO2, and 95% humidity.
(§4) 1. A series of compound solutions were formulated by 3.16-fold serial dilution starting from a concentration of 10 μM, resulting in 9 concentrations. 10 μL of the compound solutions were added in each well of the 96-well plate seeded with cells in triplicate for each compound concentration; 2. The cells in the 96-well plate added with compounds were further incubated under the condition of 37° C., 5% CO2, and 95% humidity for 72 hrs, and then CTG analysis was carried out.
(§5) 1. CTG reagent was thawed, and the cell plate was equilibrated at room temperature for 30 minutes; 2. An equal volume […] of CTG solution was added to each well; 3. The cell plate was shaken on an orbital shaker for 5 minutes to lyse the cells; 4. The cell plate was placed at RT for 20 minutes to stabilize the luminescence signal; 5. Luminescence value was read.
(§6) Data were Analyzed by GraphPad Prism 5.0 Software, and Fitted by Nonlinear S-Curve Regression to obtain a dose-response curve, from which IC50 values were calculated.
(§7) Cell survival rate (%)=(luminescence value of drug to be tested−luminescence value of culture medium control)/(luminescence value of cell control−luminescence value of culture medium control)×100%.
(In general: Cellular ATP, detected with luciferase, serves as a proxy for viable cell number.)

Test [2] has as its system Ba/F3 KIF5B-RET^G810R cells. The test is described as above. The following applies: ratio of Ba/F3 parental IC50 to Ba/F3 KIF5B-RET^G810R IC50. On the procedure: as §1, §2, §3, §4, §5, §6, §7
Test [3] has as its system Ba/F3 KIF5B-RET^V804M cells. The experiment in a line: Cytotoxicity assay (CellTiter-Glo), Ba/F3 KIF5B-RET V804M. Conditions: ratio of Ba/F3 parental IC50 to Ba/F3 KIF5B-RET^V804M IC50. On the procedure: as §1, §2, §3, §4, §5, §6, §7
Test [4] has as its target T2, Ba/F3 KIF5B-RET^V804M cells (Homo sapiens, UniProt P07949, V804M, cells depend on it).
T2 construct: Ba/F3 KIF5B-RET^V804M IC50 (nM); other: CellTiter-Glo, 72 hrs; fused on or other part: P33176 (Kinesin-1 heavy chain)
Described as above. Conditions: CellTiter-Glo, 72 hrs; read-out: Ba/F3 KIF5B-RET^V804M IC50. On the procedure: as §1, §2, §3, §4, §5, §6, §7

In test [5] the target is T3, Ba/F3 FLT3-ITD cells (Homo sapiens, UniProt P36888, cells depend on it, form not given).
T3 construct: Ba/F3 FLT3-ITD IC50 (nM); other: CellTiter-Glo, 72 hrs
T3 sequence (P36888 1-993): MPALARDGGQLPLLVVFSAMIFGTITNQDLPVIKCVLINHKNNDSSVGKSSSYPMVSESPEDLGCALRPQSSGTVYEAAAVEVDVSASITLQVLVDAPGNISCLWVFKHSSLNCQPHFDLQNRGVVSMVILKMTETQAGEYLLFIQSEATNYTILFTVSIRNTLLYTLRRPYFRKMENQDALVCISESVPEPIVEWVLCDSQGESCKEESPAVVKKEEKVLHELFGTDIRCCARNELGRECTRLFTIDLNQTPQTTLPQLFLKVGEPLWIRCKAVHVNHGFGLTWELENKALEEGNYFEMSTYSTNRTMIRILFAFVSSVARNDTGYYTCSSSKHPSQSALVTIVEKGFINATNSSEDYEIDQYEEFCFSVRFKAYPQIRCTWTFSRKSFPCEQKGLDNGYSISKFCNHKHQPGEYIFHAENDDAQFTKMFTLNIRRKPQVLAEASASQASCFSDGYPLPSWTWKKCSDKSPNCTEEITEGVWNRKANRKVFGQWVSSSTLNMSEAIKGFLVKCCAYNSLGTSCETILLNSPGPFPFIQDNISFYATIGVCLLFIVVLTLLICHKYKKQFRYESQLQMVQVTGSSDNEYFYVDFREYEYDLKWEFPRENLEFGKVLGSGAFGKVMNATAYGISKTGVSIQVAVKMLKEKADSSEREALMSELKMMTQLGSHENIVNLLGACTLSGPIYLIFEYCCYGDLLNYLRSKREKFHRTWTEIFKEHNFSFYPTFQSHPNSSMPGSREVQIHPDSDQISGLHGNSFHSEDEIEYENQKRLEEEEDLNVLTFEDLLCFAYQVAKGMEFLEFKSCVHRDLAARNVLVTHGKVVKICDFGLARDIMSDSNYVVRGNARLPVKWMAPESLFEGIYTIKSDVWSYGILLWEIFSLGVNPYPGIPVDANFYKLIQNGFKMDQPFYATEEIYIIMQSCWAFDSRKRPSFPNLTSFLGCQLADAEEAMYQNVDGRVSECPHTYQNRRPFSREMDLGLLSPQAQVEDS
The experiment in a line: Cytotoxicity assay (CellTiter-Glo), Ba/F3 FLT3-ITD. The following applies: CellTiter-Glo, 72 hrs; read-out: Ba/F3 FLT3-ITD IC50. On the procedure: as §1, §2, §3, §4, §5, §6, §7

Test [6] relates to Ba/F3 FLT3-ITD cells. As to the kind of experiment: Cytotoxicity assay (CellTiter-Glo), Ba/F3 FLT3-ITD. Conditions: ratio of Ba/F3 parental IC50 to Ba/F3 FLT3-ITD IC50. On the procedure:
as §1, §2, §3, §4, §5, §6, §7

Test [7] concerns Ba/F3 KIF5B-RET^V804L cells. As to the kind of experiment: Cytotoxicity assay (CellTiter-Glo), Ba/F3 KIF5B-RET V804L. Conditions: ratio of Ba/F3 parental IC50 to Ba/F3 KIF5B-RET^V804L IC50. On the procedure: as §1, §2, §3, §4, §5, §6, §7
In test [8] the target is T4, Ba/F3 KIF5B-RET^V804L cells (Homo sapiens, UniProt P07949, V804L, cells depend on it).
T4 construct: Ba/F3 KIF5B-RET^V804L IC50 (nM); other: CellTiter-Glo, 72 hrs; fused on or other part: P33176 (Kinesin-1 heavy chain)
The description is as above. Conditions: CellTiter-Glo, 72 hrs; read-out: Ba/F3 KIF5B-RET^V804L IC50. On the procedure: as §1, §2, §3, §4, §5, §6, §7

2 compounds from patent publication US20220380375A1, “SUBSTITUTED AROMATIC FUSED RING DERIVATIVE AND COMPOSITION COMPRISING SAME, AND USE THEREOF” (Shenzhen TargetRx, Inc., priority 2019, published 2022) can be followed below.

T1 sequence (P07949 whole entry G810R, the tested form may be a part): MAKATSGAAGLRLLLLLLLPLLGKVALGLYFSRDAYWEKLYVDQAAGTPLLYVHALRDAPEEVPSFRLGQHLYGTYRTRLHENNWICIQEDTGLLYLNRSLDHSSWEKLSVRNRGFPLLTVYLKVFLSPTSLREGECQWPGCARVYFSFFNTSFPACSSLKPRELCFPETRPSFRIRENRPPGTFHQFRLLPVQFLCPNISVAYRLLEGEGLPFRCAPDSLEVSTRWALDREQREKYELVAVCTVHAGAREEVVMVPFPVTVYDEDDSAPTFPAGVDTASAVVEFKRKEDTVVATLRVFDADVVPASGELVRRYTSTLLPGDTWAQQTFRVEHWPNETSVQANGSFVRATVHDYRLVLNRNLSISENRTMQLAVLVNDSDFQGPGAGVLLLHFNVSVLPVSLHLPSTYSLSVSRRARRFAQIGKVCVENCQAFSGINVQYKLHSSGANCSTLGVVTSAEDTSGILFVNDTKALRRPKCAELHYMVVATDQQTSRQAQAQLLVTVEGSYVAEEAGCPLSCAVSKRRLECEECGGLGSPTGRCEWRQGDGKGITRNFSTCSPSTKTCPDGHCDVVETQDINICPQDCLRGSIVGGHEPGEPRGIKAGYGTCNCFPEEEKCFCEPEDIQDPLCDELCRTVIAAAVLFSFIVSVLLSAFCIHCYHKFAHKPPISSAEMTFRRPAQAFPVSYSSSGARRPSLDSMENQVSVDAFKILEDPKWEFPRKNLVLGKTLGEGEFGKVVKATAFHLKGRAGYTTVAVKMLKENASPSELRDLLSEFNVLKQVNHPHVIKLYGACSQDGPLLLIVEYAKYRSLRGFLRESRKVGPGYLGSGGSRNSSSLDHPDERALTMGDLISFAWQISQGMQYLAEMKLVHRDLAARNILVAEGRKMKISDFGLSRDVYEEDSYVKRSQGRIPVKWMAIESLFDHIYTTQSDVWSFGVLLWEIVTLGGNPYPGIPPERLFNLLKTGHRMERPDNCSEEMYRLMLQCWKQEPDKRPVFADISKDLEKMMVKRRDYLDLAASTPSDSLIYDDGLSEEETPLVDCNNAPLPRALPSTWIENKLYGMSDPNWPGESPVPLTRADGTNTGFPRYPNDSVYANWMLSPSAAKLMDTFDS
T4 sequence (P07949 whole entry V804L, the tested form may be a part): as the sequence (P07949 whole entry G810R, the tested form may be a part) above, with V804L, R810G counted along it
T2 sequence (P07949 whole entry V804M, the tested form may be a part): as the sequence (P07949 whole entry G810R, the tested form may be a part) above, with V804M, R810G counted along it

Take `[2H]C([2H])([2H])C(n1nc(-c2ccc(CC(=O)Nc3cc(C(C)(C)C(F)(F)F)no3)cc2)c2c(N)ncnc21)C([2H])([2H])[2H]` [Compound T-11, 2-(4-(4-amino-1-(propan-2-yl-1,1,1,3,3,3-d6)-1H-pyrazolo[3,4-d]pyrimidin-3-yl)phenyl)-N-(3-(1,1,1-trifluoro-2-methylpropan-2-yl)isoxazol-5-yl)acetamide]: the GI50 in test [1] came to 5.86 nM; in test [4] it was 3.63 nM; at Ba/F3 FLT3-ITD cells [5], 0.73 nM; in test [8], 6.1 nM. Moreover, the “Ba/F3 KIF5B-RET^G810R Selectivity on parental generation” value in test [2] stood at 939.8. Further, the “Ba/F3 KIF5B-RET^V804M Selectivity on parental generation” value in test [3] is listed as 1517.1. In addition, the “Ba/F3 FLT3-ITD Selectivity on parental generation” value with Ba/F3 FLT3-ITD cells [6] is 7543.8. In addition, the “Ba/F3 KIF5B-RET^V804L Selectivity on parental generation” value in test [7] came to 902.8.
Regarding `[2H]C([2H])([2H])C(n1cc(-c2ccc(CC(=O)Nc3cc(C(C)(C)C(F)(F)F)on3)cc2)c2c(N)ncnc21)C([2H])([2H])[2H]` [Compound T-12, 2-(4-(4-amino-7-(propen-2-yl-1,1,1,3,3,d6)-7H-pyrrolo[2,3-d]pyrimidin-5-yl)phenyl)-N-(5-(1,1,1-trifluo-2-methylpropan-2-yl)isoxazol-3-yl)acetamide], the GI50 is 6.4 nM in test [1], 4.55 nM in test [4], 0.7 nM at Ba/F3 FLT3-ITD cells [5] and 8.11 nM in test [8]. Besides, the “Ba/F3 KIF5B-RET^G810R Selectivity on parental generation” value in test [2] came to 167.5. Also, the “Ba/F3 KIF5B-RET^V804M Selectivity on parental generation” value in test [3] was determined as 235.6. Besides, the “Ba/F3 FLT3-ITD Selectivity on parental generation” value in the test on Ba/F3 FLT3-ITD cells [6] was found to be 1531.4. Further, the “Ba/F3 KIF5B-RET^V804L Selectivity on parental generation” value in test [7] was determined as 132.2.
